Here are results for 19 molecules from patent US7071231B2, “Naphthalene ureas as glucose uptake enhancers” (Telik, Inc., priority 1999, dated 2006).

Like-named read-outs stand apart in the source and are kept apart here.

The test has as its system 3T3 L1 fibroblasts. Kind of test: Glucose transport activity assay (14C-2-deoxy-D-glucose uptake). Type of test: cell-based. The settings on record: Mus musculus. On the procedure:
Glucose Transport Activity Assay.
Stimulation of the insulin receptor leads to the transport of glucose from the blood into cells, thus modulating blood glucose levels. 3T3 L1 fibroblasts (ATCC) were grown in Dulbecco's modified Eagle's medium (DMEM) with 10% fetal bovine serum (FBS). The cells were plated at a density of 3×10^4 cells/well in 24-well plates. Two days after confluence was reached, the cells were treated for 3 days with 0.5 mM isobutylmethylxanthine (IBMX), 1 μM dexamethasone, and 1.7 μM insulin. The cells were then transferred to DMEM with 10% FBS and supplemented with 1.7μM insulin for 2 more days. The cells were maintained in DMEM with 10% FBS for an additional 4 days. Finally the cells were serum-starved overnight in 0.1% bovine serum albumin (BSA) in DMEM.
The following day, the medium was replaced with 150 mM NaCl, 1.7 mM KCl, 0.9 mM CaCl2, K2HPO4 (pH 7.4) to which were added either the experimental compounds or their vehicle (DMSO). Insulin or its vehicle (0.01% BSA) was diluted in the assay buffer (containing test compound or vehicle, respectively) to final concentration of […]. After incubation for 30 min at 37° C., 5 μCi/ml ^14C-2-deoxy-D-glucose was added, and the incubation was continued for additional 30 min at 37° C. The cells were then washed 3 times with ice-cold PBS/20 mM glucose and lysed in 250 μl of lysis buffer (50 mM HEPES pH 7.6, 1% Triton X-100) for 30 min at room temperature. Radioactivity in the lysate was quantified by scintillation counting.
Once ^14C-2-deoxy-D-glucose is transported into the cell, it is not released. Glucose transport is, therefore, proportional to the amount of radioactivity in the lysate. The concentration of compound necessary to produce an increase in glucose transport to greater than 150% of the vehicle control (generally representing the sum of the standard deviation of the vehicle control plus the largest standard deviation of a test sample) was recorded as the EC (effective concentration). Shown in FIG. 3 is glucose uptake by cells at various concentrations when treated with Compound 13 and Compound 15.

[1] abbreviates: EC (effective concentration) for increase in glucose transport, 14C-2-deoxy-D-glucose, 3T3 L1 cells, read-out: Concentration (μM) to reach >150% activity of vehicle control.

As for `O=C(Nc1ccc2ccc(S(=O)(=O)O)cc2c1)Nc1ccc2ccc(S(=O)(=O)Nc3ccc([N+](=O)[O-])c(C(=O)O)c3)cc2c1` [Compound 37, 2-nitro-5-{[(7-{[N-(7-sulfo(2-naphthyl))carbamoyl]amino}(2-naphthyl))sulfonyl]amino}benzoic acid], the EC (150% of vehicle control) under setting [1] was determined as 3.2 µM. On to `O=C(Nc1ccc2ccc(S(=O)(=O)Nc3ccc([N+](=O)[O-])c(C(=O)O)c3)cc2c1)Nc1ccc2ccc(S(=O)(=O)Nc3ccc([N+](=O)[O-])c(C(=O)O)c3)cc2c1` [Compound 38, 5-{[(7-{[N-(7-{[(3-carboxy-4-nitrophenyl)amino]sulfonyl}(2-naphthyl))carbamoyl]amino}(2-naphthyl))sulfonyl)amino}-2-nitrobenzoic acid], for which, for the setting “3T3-L1, read-out: Concentration (μM) to reach >150% activity of vehicle control”, the EC (150% of vehicle control) was 3.2 µM. On to `O=C(Nc1ccc2c(O)cc(S(=O)(=O)Nc3ccc(O)c(C(=O)O)c3)cc2c1)Nc1ccc2c(O)cc(S(=O)(=O)Nc3ccc(O)c(C(=O)O)c3)cc2c1` [Compound 43, 5-{[(7-{[N-(7-{[(3-carboxy-4-hydroxyphenyl)amino]sulfonyl}-5-hydroxy(2-naphthyl))carbamoyl]amino}-4-hydroxy(2-naphthyl))sulfonyl]amino}-2-hydroxybenzoic acid], for which the EC (150% of vehicle control) under setting [1] amounted to 10 µM. The same measure, in the same setting: the value for `O=C(Nc1ccc2ccc(S(=O)(=O)Nc3ccccc3C(=O)O)cc2c1)Nc1ccc2ccc(S(=O)(=O)Nc3ccccc3C(=O)O)cc2c1` [Compound 45, 2-{[(7-{[N-(7-{[(2-carboxyphenyl)amino]sulfonyl}-2-naphthyl)carbamoyl]amino}-2-naphthyl)sulfonyl]amino}benzoic acid] was 3.2 µM; that for `O=C(Nc1ccc2c(O)cc(S(=O)(=O)Nc3ccccc3C(=O)O)cc2c1)Nc1ccc2c(O)cc(S(=O)(=O)Nc3ccccc3C(=O)O)cc2c1` [Compound 47, 2-{[(7-{[N-(7-{[(2-carboxyphenyl)amino]sulfonyl}-5-hydroxy(2-naphthyl))carbamoyl]amino}-4-hydroxy-2-naphthyl)sulfonyl]amino}benzoic acid] was 3.2 µM; that for `O=C(Nc1ccc2c(O)cc(S(=O)(=O)Nc3ccc(Cl)c(C(=O)O)c3)cc2c1)Nc1ccc2c(O)cc(S(=O)(=O)Nc3ccc(Cl)c(C(=O)O)c3)cc2c1` [Compound 49, 5-{[(7-{[N-(7-{[(3-carboxy-4-chlorophenyl)amino]sulfonyl}-5-hydroxy(2-naphthyl))carbamoyl]amino}-4-hydroxy(2-naphthyl))sulfonyl]amino}-2-chlorobenzoic acid] was 3.2 µM. As for `COC(=O)c1cc(NS(=O)(=O)c2cc(O)c3ccc(NC(=O)Nc4ccc5c(O)cc(S(=O)(=O)Nc6cc(C(=O)OC)cc(C(=O)OC)c6)cc5c4)cc3c2)cc(C(=O)OC)c1` [Compound 50, methyl 3-({[7-({[7-({[3,5-bis(methoxycarbonyl)phenyl]amino}sulfonyl)-5-hydroxy(2-naphthyl)]amino}carbonylamino)-4-hydroxy(2-naphthyl)]sulfonyl}amino)-5-(methoxycarbonyl)benzoate], the EC (150% of vehicle control) under setting [1] amounted to 3.2 µM. On to `O=C(Nc1ccc2c(O)cc(S(=O)(=O)Nc3cc(C(=O)O)cc(C(=O)O)c3)cc2c1)Nc1ccc2c(O)cc(S(=O)(=O)Nc3cc(C(=O)O)cc(C(=O)O)c3)cc2c1` [Compound 51, 5-{[(7-{[N-(7-{[(3,5-dicarboxyphenyl)amino]sulfonyl}-5-hydroxy(2-naphthyl))carbamoyl]amino}-4-hydroxy-2-naphthyl)sulfonyl]amino}benzene-1,3-dicarboxylic acid], for which the EC (150% of vehicle control) under setting [1] was greater than 32 µM.

For `O=C(O)Cc1cccc(NS(=O)(=O)c2cc(O)c3ccc(NC(=O)Nc4ccc5c(O)cc(S(=O)(=O)Nc6cccc(CC(=O)O)c6)cc5c4)cc3c2)c1` [Compound 52, 2-[3-({[7-({[7-({[3-(carboxymethyl)phenyl]amino}sulfonyl)-5-hydroxy(2-naphthyl)]amino}carbonylamino)-4-hydroxy-2-naphthyl]sulfonyl}amino)phenyl]acetic acid], the EC (150% of vehicle control) under setting [1] was found to be 3.2 µM. `O=C(Nc1ccc2ccc(S(=O)(=O)Nc3ccc(Br)c(C(=O)O)c3)cc2c1)Nc1ccc2ccc(S(=O)(=O)Nc3ccc(Br)c(C(=O)O)c3)cc2c1` [Compound 56, 2-bromo-5-{[(7-{[N-(7-{[(4-bromo-3-carboxyphenyl)amino]sulfonyl}(2-naphthyl))carbamoyl]amino}(2-naphthyl))sulfonyl]amino}benzoic acid]: under setting [1], the EC (150% of vehicle control) came to 3.2 µM.

With `Cc1ccc(NS(=O)(=O)c2ccc3ccc(NC(=O)Nc4ccc5ccc(S(=O)(=O)Nc6ccc(C)c(C(=O)O)c6)cc5c4)cc3c2)cc1C(=O)O` [Compound 57, 5-{[(7-{[N-(7-{[(3-carboxy-4-methylphenyl)amino]sulfonyl}(2-naphthyl))carbamoyl]amino}(2-naphthyl))sulfonyl]amino}-2-methylbenzoic acid], the EC (150% of vehicle control) under setting [1] was 3.2 µM.

For `O=C(Nc1ccc2c(O)cc(S(=O)(=O)Nc3cccc(C(=O)O)c3Cl)cc2c1)Nc1ccc2c(O)cc(S(=O)(=O)Nc3cccc(C(=O)O)c3Cl)cc2c1` [Compound 59, 3-{[(7-{[N-(7-{[(3-carboxy-2-chlorophenyl)amino]sulfonyl}-5-hydroxy(2-naphthyl))carbamoyl]amino}-4-hydroxy(2-naphthyl))sulfonyl]amino}-2-chlorobenzoic acid], the EC (150% of vehicle control) under setting [1] was 32 µM.

Turning to `O=C(Nc1ccc2c(O)cc(S(=O)(=O)Nc3cc(C(=O)O)ccc3Cl)cc2c1)Nc1ccc2c(O)cc(S(=O)(=O)Nc3cc(C(=O)O)ccc3Cl)cc2c1` [Compound 60, 3-{[(7-{[N-(7-{[(3-carboxy-6-chlorophenyl)amino]sulfonyl}-5-hydroxy(2-naphthyl))carbamoyl]amino}-4-hydroxy(2-naphthyl))sulfonyl]amino}-4-chlorobenzoic acid], the EC (150% of vehicle control) under setting [1] is greater than 32 µM.

In the case of `COc1ccc(NS(=O)(=O)c2ccc3ccc(NC(=O)Nc4ccc5ccc(S(=O)(=O)Nc6ccc(OC)c(C(=O)O)c6)cc5c4)cc3c2)cc1C(=O)O` [Compound 62, 5-{[(7-{[N-(7-{[(3-carboxy-4-methoxyphenyl)amino]sulfonyl}(2-naphthyl))carbamoyl]amino}(2-naphthyl))sulfonyl]amino}-2-methoxybenzoic acid], the EC (150% of vehicle control) under setting [1] came out at 10 µM.

Take `O=C(Nc1ccc2ccc(S(=O)(=O)Nc3cc(C(=O)O)ccc3O)cc2c1)Nc1ccc2ccc(S(=O)(=O)Nc3cc(C(=O)O)ccc3O)cc2c1` [Compound 64, 3-{[(7-{[N-(7-{[(3-carboxy-6-hydroxyphenyl)amino]sulfonyl}(2-naphthyl))carbamoyl]amino}(2-naphthyl))sulfonyl]amino}-4-hydroxybenzoic acid]: under setting [1], the EC (150% of vehicle control) is 3.2 µM. Still for that read-out and setting: the same measure for `COC(=O)c1ccc(OC)c(NS(=O)(=O)c2ccc3ccc(NC(=O)Nc4ccc5ccc(S(=O)(=O)Nc6cc(C(=O)OC)ccc6OC)cc5c4)cc3c2)c1` [Compound 65, methyl 4-methoxy-3-({[7-({[7-({[2-methoxy-5-(methoxycarbonyl)phenyl]amino}sulfonyl)(2-naphthyl)]amino}carbonylamino)(2-naphthyl)]sulfonyl}amino)benzoate]: greater than 32 µM; for `COc1ccc(C(=O)O)cc1NS(=O)(=O)c1ccc2ccc(NC(=O)Nc3ccc4ccc(S(=O)(=O)Nc5cc(C(=O)O)ccc5OC)cc4c3)cc2c1` [Compound 66, 3-{[(7-{[(7-{[(3-carboxy-6-methoxyphenyl)amino]sulfonyl}(2-naphthyl))amino]carbonylamino}(2-naphthyl))sulfonyl]amino}-4-methoxybenzoic acid]: 3.2 µM; for `O=C(Nc1ccc2ccc(S(=O)(=O)Nc3cccc(-c4nnn[nH]4)c3)cc2c1)Nc1ccc2ccc(S(=O)(=O)Nc3cccc(-c4nnn[nH]4)c3)cc2c1` [Compound 67, N-(7-{[(3-(1H-1,2,3,4-tetraazol-5-yl)phenyl)amino]sulfonyl}(2-naphthyl))[(7-{[(3-(1H-1,2,3,4-tetraazol-5-yl)phenyl)amino]sulfonyl}(2-naphthyl))amino]carboxamide]: 3.2 µM. With `O=C(Nc1ccc2c(O)cc(S(=O)(=O)Nc3cccc(-c4nnn[nH]4)c3)cc2c1)Nc1ccc2c(O)cc(S(=O)(=O)Nc3cccc(-c4nnn[nH]4)c3)cc2c1` [Compound 68, N-(5-hydroxy-7-{[(3-(1H-1,2,3,4-tetraazol-5-yl)phenyl)amino]sulfonyl}(2-naphthyl))[(5-hydroxy-7-{[(3-(1H-1,2,3,4-tetraazol-5-yl)phenyl)amino]sulfonyl}(2-naphthyl))amino]carboxamide], the EC (150% of vehicle control) under setting [1] was 3.2 µM.
